“And” between values parts separate entries of the source, which are not always exact repeats. Equal values may be shown once.
Experiments:
[1] = system: DU-145; test: CellTiter-Glo cancer cell growth inhibition, DU-145; assay type: cell-based; conditions: Homo sapiens, DU-145, 72 h
Text: The CellTiter-Glo® Luminescent Cell Viability Assay is a sensitive homogeneous method to determine the number of viable cells in culture, Detection is based on using the luciferase reaction to measure the amount of ATP from viable cells. The amount of ATP in cells correlates with cell viability. Within minutes after a loss of membrane integrity, cells lose the ability to synthesize ATP, and endogenous ATPases destroy any remaining ATP; thus the levels of ATP fall precipitously. The CellTiter-Glo® Reagent does three things upon addition to cells. It lyses cell membranes to release ATP; it inhibits endogenous ATPases, and it provides luciferin, luciferase and other reagents necessary to measure ATP using a bioluminescent reaction. The unique properties of a proprietary stable luciferase. There is a linear relationship (r2=0.99) between the luminescent signal and the number of cells from 0 to 50.000 cells per well.
All assays were performed by Reaction Biology Corporation (Malvern, Pa.) or ChemDiv, Inc. (San Diego, Calif.). […]
Conditions: 37° C., air 95%; HEPA-filtered carbon dioxide (CO2) 5%, humidified atmosphere. • Cells were grown in 175 cm^2 flasks to 80-90% of confluency. • Culture media was aspirated and cell layer was briefly rinsed with Versen solution to remove all traces of serum. • 2 mL of accutase was added to cells. • Flasks were retuned to incubator for 5 min to allow cell detachment. • Add 6.0 mL of complete growth medium. • Single cell suspension was created by gently pipetting. • Cells were counted using a Hematocytometer and a suspension with the desired cell concentration was prepared. […]
Stock solutions ([…]) were diluted with cell culture media to produce 500× serial dilutions and […] of final compound dilutions were added to cells in assay plates to screen a series of 10 doses starting at 100 mM. […] Luminescence intensity was measured for each well using the Tecan M 1000 microplate reader after 5 min of incubation with CellTiter-Glo Reagent. The number of viable cells in culture was determined based on quantitation of the ATP present in each culture well. […]

[2] = molecular target: T1, PIM2 (Homo sapiens, UniProt Q9P1W9); test: Biochemical radiolabeled ATP kinase assay (Reaction Biology), PIM2; conditions: 10 μM ATP
T1 construct: purchased ProQinase, Freiburg, Germany 0223-0000-1
Text: Two different assays for measuring kinase inhibitor activity were employed for messing the effectiveness of compounds of the present disclosure for inhibiting PIM kinases. […] The second assay used was Perkin Elmer's LANCE® Ultra kinase assay which uses a ULight™-labeled peptide substrate and an appropriate Europium-labeled anti-phospho antibody. When the substrate becomes phosphorylated by a kinase of interest, the phosphorylated site on the substrate is recognized by the Europium-labeled anti-phospho antibody. […]
The standard protocol used for PIM3 was performed by Reaction Biology Corporation (Malvern, Pa.) using a capture assay performed in 20 mM HEPES at pH 7.5 containing 10 mM MgCl2, 10 mM MnCl2, 1 mM EGTA, 0.02% Brij35, 0.02 mg/mL BSA, 0.1 mM Na3VO4, 2 mM DTT, 0.02% Brij35, 10 μM ATP, and 20 μM peptide substrate […]. […] The bound ^33P-peptide substrate was quantified by scintillation counting and the disintegrations per minute (dpm) obtained, being directly proportional to the amount of ^33P-peptide produced by PIM3, were used to determine the IC50 for each compound. […]
The inhibitory activity of each compound against PIM kinases was measured with the radioisotope filter binding assay, a type of substrate phosphorylation assays, available at Reaction Biology Corporation (Mavern, Pa.). […]

[3] = molecular target: T2, PIM3 (Homo sapiens, UniProt Q86V86); test: Biochemical radiolabeled ATP kinase assay (Reaction Biology), PIM3; conditions: for IC50: 10 μM ATP
T2 construct: purchased SignalChem, Richmond, Canada P37-10BG
Text: The second assay used was Perkin Elmer's LANCE® Ultra kinase assay which uses a ULight™-labeled peptide substrate and an appropriate Europium-labeled anti-phospho antibody. When the substrate becomes phosphorylated by a kinase of interest, the phosphorylated site on the substrate is recognized by the Europium-labeled anti-phospho antibody. […] The intensity of light emission is proportional to the level of ULight peptide phosphorylation. A kinase inhibitor reduces the FRET signal, thus providing an accurate and sensitive measure of inhibition potency.
The basic biochemical assay employs radiolabeled ATP to measure the kinase-catalyzed transfer of radioactive phosphorus to a tyrosine-containing peptide substrate, according to the general equation: […]
Reaction: Substrate+[γ-^33P]−ATP→^33P-Substrate+ADP
The standard protocol used for PIM3 was performed by Reaction Biology Corporation (Malvern, Pa.) using a capture assay performed in 20 mM HEPES at pH 7.5 containing 10 mM MgCl2, 10 mM MnCl2, 1 mM EGTA, 0.02% Brij35, 0.02 mg/mL BSA, 0.1 mM Na3VO4, 2 mM DTT, 0.02% Brij35, 10 μM ATP, and 20 μM peptide substrate […]. […] Reagents were combined and incubation at 30° C. for 30 min, the reaction was initiated by adding [γ-^33P]-ATP (10 ρCi/mL [γ-^33P]-ATP) and incubated for 2 h at 30° C. The reaction was then terminated by the addition of one-third volume of stop reagent (0.25 mM EDTA and 33 mM ATP in dH20). A […] aliquot was removed, spotted onto a P-81 filternat ion exchange paper and washed sequentially with 10% (w/v) chloroacetic acid and dH20 to remove ATP. The bound ^33P-peptide substrate was quantified by scintillation counting and the disintegrations per minute (dpm) obtained, being directly proportional to the amount of ^33P-peptide produced by PIM3, were used to determine the IC50 for each compound. […]
The inhibitory activity of each compound against PIM kinases was measured with the radioisotope filter binding assay, a type of substrate phosphorylation assays, available at Reaction Biology Corporation (Mavern, Pa.).

T1 sequence (Q9P1W9 whole entry): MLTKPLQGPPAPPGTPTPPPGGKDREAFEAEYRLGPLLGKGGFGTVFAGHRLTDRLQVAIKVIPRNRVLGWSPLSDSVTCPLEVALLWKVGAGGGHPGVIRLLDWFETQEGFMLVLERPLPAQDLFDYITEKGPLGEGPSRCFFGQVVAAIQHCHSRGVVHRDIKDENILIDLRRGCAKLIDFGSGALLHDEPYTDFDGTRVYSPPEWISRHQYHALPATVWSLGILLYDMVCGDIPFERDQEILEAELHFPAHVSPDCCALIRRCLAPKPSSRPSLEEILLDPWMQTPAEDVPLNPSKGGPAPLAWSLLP

EC50 [1] | IC50 [2] | IC50 [3] | Selectivity among PIM1-3 (IC50 plots, FIGS. 1A-1C) [3] | SMILES
40 nM | 6.7 nM | 0.2 nM |  | O=C1NC(=O)c2c1c1c3ccccc3[nH]c1c1c2c2cc(F)c(O)cc2n1CCN1CCOCC1 [Compound 19, 3-fluoro-2-hydroxy-13-(2-morpholin-4-ylethyl)-12,13-dihydro-5H-indolo[2,3-a]pyrrolo[3,4-c]carbazole-5,7(6H)-dione]
41 nM | 7 nM and 7.4 nM | 0.25 nM | PIM3 selectivity | O=C1NC(=O)c2c1c1c3cc(F)c(O)cc3[nH]c1c1c2c2ccccc2n1CCN1CCOCC1 [Compound 18, 3-fluoro-2-hydroxy-12-(2-morpholin-4-ylethyl)-12,13-dihydro-5H-indolo[2,3-a]pyrrolo[3,4-c]carbazole-5,7(6H)-dione]

Reference: patent US20220274997A1, “PIM KINASE INHIBITOR COMPOSITIONS AND USES THEREOF” (Snap Bio, Inc., priority 2019, published 2022)
